According to patent US20130045948A1, “AZOCYCLIC INHIBITORS OF FATTY ACID AMIDE HYDROLASE” (E I DU PONT DE NEMOURS AND COMPANY, priority 2009, published 2013):

How the values were obtained:
[1] = cited from earlier work
[2] = test system: female Cr1:CD1(ICR) mice; experiment: Tail immersion assay in mice (analgesic potential, in combination with anandamide); details: for % MPE (percent of the maximum possible effect (test-baseline)/(10-baseline)) / Test Time / Baseline Time: mean; for Baseline Time: prior to administration of compounds, tail in water 52+/−1° C.; for analgesic effects at the rate tested (conclusion) / % of the treated animals exhibiting the maximum measured response time of 10 sec: 10 mg/kg i.p. plus anandamide 50 mg/kg
Description: Test substances were injected once by intraperitoneal (i.p.) route to female Cr1:CD1(ICR) mice. The tail immersion assay was conducted prior to administration of compounds to establish baseline values and again after administration of compounds.
Analgesia was evaluated in female mice by immersing approximately 3.5 cm of each tail into water that was maintained at 52+/−1° C. for a maximum of 10 seconds (sec). The length of time until the animal removed its tail from the water or made a significant tail movement was measured. If the response time was less than 5 sec, a second trial was conducted.
Based on the results of the preliminary study, the time interval between administration of the test substances and anandamide was established as 40 minutes. In addition, the time interval between administration of anandamide and conducting the tail immersion assay was established to be 40 minutes.
The formulations were made on the day of dosing and administered once by intraperitoneal route.

[3] = molecular target: T1, recombinant human FAAH (MBP-ΔTM-FAAH) (Homo sapiens, UniProt O00519); experiment: FAAH assay, fluorogenic substrate D-AMC; assay type: biochemical; details: D-AMC 5 μM, pH 8.0, 37° C.
T1 construct: The region of the gene corresponding to amino acids 34 to 579 was cloned into pMAL-c4x; made in house; host or cells: E. coli T7 Express
T1 sequence (O00519 34-579): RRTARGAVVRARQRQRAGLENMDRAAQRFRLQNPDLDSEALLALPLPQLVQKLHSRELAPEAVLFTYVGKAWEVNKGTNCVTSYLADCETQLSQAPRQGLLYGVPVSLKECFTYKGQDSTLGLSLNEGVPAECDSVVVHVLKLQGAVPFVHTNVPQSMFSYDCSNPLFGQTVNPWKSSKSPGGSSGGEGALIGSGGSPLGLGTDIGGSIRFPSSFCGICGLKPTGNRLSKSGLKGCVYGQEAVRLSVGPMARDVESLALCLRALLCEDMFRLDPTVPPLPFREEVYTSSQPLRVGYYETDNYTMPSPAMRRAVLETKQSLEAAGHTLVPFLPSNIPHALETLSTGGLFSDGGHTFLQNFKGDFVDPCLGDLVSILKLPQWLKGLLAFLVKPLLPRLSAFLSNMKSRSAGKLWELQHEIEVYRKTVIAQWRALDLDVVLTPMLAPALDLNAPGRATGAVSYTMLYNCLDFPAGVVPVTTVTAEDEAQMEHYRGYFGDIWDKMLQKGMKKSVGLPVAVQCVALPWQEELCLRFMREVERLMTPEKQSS
Description: E. coli T7 Express cells, containing the FAAH constructs, were used for expression of protein by induction with IPTG (isopropyl-β-D-thiogalactopyranoside) (100 μM) overnight at room temperature in Lennox Broth with 0.2% glucose. After harvest, the cells were resuspended in 20 mM Hepes buffer (pH 7.4) containing 200 mM NaCl, 2 mM DTT (dithiothreitol). The cell suspension was lysed by sonication, and the cell debris removed by centrifugation. […] The enzyme was eluted using 15 mM maltose as per manufacturer's (New England BioLabs, Inc.) instruction. Fractions containing FAAH were concentrated and further purified using Sephacryl™ 5100 (HIPrep™ 26/60, GE Healthcare, Inc.) chromatography. […]
FAAH assay—Enzyme activity was measured using the fluorogenic substrate, decanoyl 7-amino-4-methylcoumarin (D-AMC) as described by Kage, K. L. et al. J. of Neuroscience Methods 2007, 161, 47-54. […] Reactions were carried out in black 96-well microplates (Costar, Inc) using a SpectraMax Gemini™ (Molecular Devices, Inc.) fluorescence plate reader in a reaction volume of 200 μL per well at 37° C. Reaction rates were monitored at an emission wavelength of 430 nm using an excitation wavelength of 351 nm over 30 to 40 minutes. Experimental compounds were initially evaluated at a single concentration of 2 μM.

[4] = anandamide 50 mg/kg i.p. alone (negative control), assay 40 minutes after
[5] = 10 mg/kg i.p., anandamide 50 mg/kg i.p. 40 minutes later, assay 40 minutes after anandamide
[6] = 10 mg/kg i.p., anandamide 50 mg/kg i.p. 40 minutes later, assay 40 minutes after anandamide, maximum 10 sec

IC50 [3] [nM] | Structure (SMILES) | causing hypothermia or analgesia ([1]; anandamide alone) | % MPE (percent of the maximum possible effect (test-baseline)/(10-baseline)) [2, 4] [%] | Test Time [2, 4] [s] | Baseline Time ([2]; maximum 10 sec) [s] | analgesic effects at the rate tested (conclusion) [2] | % MPE (percent of the maximum possible effect (test-baseline)/(10-baseline)) [2, 5] [%] | Test Time [2, 6] [s] | % of the treated animals exhibiting the maximum measured response time of 10 sec [2] [%] | analgesic effect ([1]; anandamide administered along with OL-135)
– | CCCCC/C=C\C/C=C\C/C=C\C/C=C\CCCC(=O)NCCO [Anandamide, reference compound] | largely ineffective | 20.3 | 6.7 | 6.9 | – | – | – | – | –
– | O=C(Nc1ccccc1)N1CCC(c2nc(C3=NOC(c4ccccc4)C3)cs2)CC1 (stereo not drawn) [Compound 1, 4-[4-(4,5-dihydro-5-phenyl-3-isoxazolyl)-2-thiazolyl]-N-phenyl-1-piperidinecarboxamide] | – | – | – | 3.5 | no analgesic effects | 20.2 | 5.0 | – | –
– | O=C(Oc1ccccc1)N1CCC(c2nc(C3=NOC(c4ccccc4)C3)cs2)CC1 (stereo not drawn) [Compound 11, phenyl 4-[4-(4,5-dihydro-5-phenyl-3-isoxazolyl)-2-thiazolyl]-1-piperidinecarboxylate] | – | – | – | 5.8 | analgesic effects | 100.0 | 10.0 | 100 | –
– | O=C(Nc1nccs1)N1CCC(c2nc(C3=NOC(c4ccccc4)C3)cs2)CC1 (stereo not drawn) [Compound 49] | – | – | – | 7.5 | no analgesic effects | −4.0 | 6.4 | – | –
29 | O=C(Oc1ccccc1)N1CCC(c2nc(C3=NOC4(CCCc5ccccc54)C3)cs2)CC1 (stereo not drawn) [Compound 52] | – | – | – | – | – | – | – | – | –
– | O=C(Oc1ccccc1Cl)N1CCC(c2nc(C3=NOC(c4ccccc4)C3)cs2)CC1 (stereo not drawn) [Compound 61] | – | – | – | 6.0 | analgesic effects | 86.9 | 9.4 | 90 | –
– | O=C(CCCCCCc1ccccc1)c1ncc(-c2ccccn2)o1 [OL-135, reference compound] | – | – | – | 4.1 | – | 61.5 | 7.6 | – | significantly elevated
